The subject of series [1] is blood cholesterol. Nature of the series: Experimental cholesterolaemia tests. Particulars: for total cholesterol: daily for six weeks with cholesterolaemia-lowering diet, L-carnitine 100 mg/kg, hexacosanol 10 mg/kg or both, controls 95.2 ± 5.4, hypercholesterolaemic controls 285.7 ± 11.2; for cholesterolaemia-lowering action (in words): six weeks. In kind it is in vivo. The text has this: In experimental cholesterolaemia, too, a marked synergistic effect of the L-carnitine plus hexacosanol combination was detected. In these tests, the experimental cholesterolaemia was induced according to the method described by Sirtori (Sirtori CR, Atherosclerosis 26-27, 1977). Treatment both With L-carnitine and hexacosanol, as well as with the two compounds in combination, was continued daily for six weeks, in conjunction with a cholesterolaemia-lowering diet. On completing the six weeks of treatment, blood cholesterol was assayed both in control animals put on a cholesterolaemia-lowering diet alone and in animals treated with L-carnitine, or with hexacosanol, or with the two compounds in combination. Using the assay method described by Roschlan (Roschlan P, Clin Chem Clin Biochem 12: 403, 1975).

In series [2] the test system is platelet aggregation. The series can be described thus: Platelet aggregation inhibition tests (collagen-induced). It is filed as cell-based, healthy volunteers. Particulars: collagen 2.5 ng/mL, 10 min incubation. Here is the method:
The tests were performed using plasma from healthy volunteers containing at least 300,000 platelets/mm^3.
The platelet count was done using a CA 580A Platelet Counter (Delcon). Platelet aggregation was induced using collagen as the aggregating agent at doses of 2.5 and 5 ng/mL according to the technique described by Born and Cross (Born YVR, Cross M, J Physiol 26: 25, 1963).
Platelet aggregation was determined photometrically (Born VJR, Nature 194: 927, 1962) using an Elvi 840 aggregometer.
Platelet aggregation was measured in basal conditions and after 10 min of incubation with L-carnitine, hexacosanol and the L-carnitine-hexacosanol combination.

Series [3] has as its system left ventricular arrhythmias due to myocardial anoxia. The series can be described thus: Cardiac anoxia induced by coronary ligation (left ventricular arrhythmias). It is filed as in vivo, Male Wistar rats. Particulars: for Start of arrhythmias / Total ectopic contractions during 30 min after coronary ligation: L-carnitine 100 mg/kg, hexacosanol 10 mg/kg or both into left ventricle 15 min before ligation; for Start of arrhythmias: controls 4-7; for Total ectopic contractions during 30 min after coronary ligation: controls 992 ± 118; for ability to reduce ectopic contractions (in words): administered alone. How it is done:
These tests were performed to evaluate the protective action of L-carnitine and hexacosanol and their combination on left ventricular arrhythmias due to myocardial anoxia induced by coronary ligation according to the technique described by Selych et cal. (Angiology 11-398, 1960) and by Clark et al. (J Pharmacol Methods 3-357, 1980). Male Wistar rats with a mean body weight of 350-400 g were submitted to surgical occlusion of the left coronary artery. Arrhythmias set in within 4-7 min of coronary ligation. Ventricular ectopic contractions were then counted during a period of 30 min both in a group of control rats and in the groups of rats receiving slow injection of a solution containing L-carnitine (100 mg/kg), hexacosanol (10 mg/kg) or the two substances in combination at the same doses into the left ventricle 15 min before ligation.

Series [4] has as its system ATP content of the papillary muscle. The series can be described thus: ATP concentrations in papillary muscle of rabbits with induced hypoxia. In kind it is in vivo, New Zealand rabbits. Particulars: L-carnitine 100 mg/kg, hexacosanol 10 mg/kg or both, i.v. daily for 3 days; for ATP content after hypoxia: 60 min of hypoxia, controls 0.45 ± 0.03; for ATP content before hypoxia: normal perfusion 90 min, controls 1.65 ± 0.28. How it is done: These tests were performed in New Zealand rabbits with a mean body weight of 2 kg, receiving daily intravenous injections of a solution containing 100 mg/kg of L-carnitine or 10 mg/kg of hexacosanol, or of the two substances combined at the same doses, for 3 consecutive days. A group of animals received no treatment and served as the control group.
All the animals treated were sacrificed along with the controls at the end of the third day of treatment two hours after the last injection. The hearts were removed and equal sections of papillary muscle measuring 1 mm in diameter and 4-5 mm in thickness were isolated. These tissues were perfused in a thermostatic bath with a (100%) saturated O2 solution. Experimental hypoxia conditions were induced by introducing N2 (100%) into the bath in place of O2. […] The analysis was done on tissue samples maintained under normal perfusion conditions for 90 min and after 60 min of hypoxia.

A short description of series [5]: Prolonged daily administration (30 days) tolerability, body weight, blood chemistry and histology. In kind it is in vivo, rats and mice. Particulars: daily for 30 days; carnitine 250 mg/kg or hexacosanol 20 mg/kg, alone or in combination. The text has this:
Moreover, no abnormalities were found at histological examination of the parenchyma of the main organs (heart, lungs, kidneys, adrenal glands and pancreas).

Series [6] can be described thus: Acute oral toxicity in mice. In kind it is in vivo. Particulars: 2 g/kg L-carnitine or 500 mg/kg hexacosanol, alone or in combination.
Series [7] in a line: Acute oral toxicity in rats. It is filed as in vivo. Particulars: 2 g/kg L-carnitine or 500 mg/kg hexacosanol, alone or in combination.
The test system of series [8] is atherosclerotic lesions (abdominal aorta). The series can be described thus: Experimental atherosclerosis tests (atherogenic diet). In kind it is in vivo, Wistar male rats. Particulars: abdominal aorta thickness and Sudan IV staining, 1- to 5-point score. Here is the method:
D2 200 m STU/g diet. The anti-atherogenic effect of both L-carnitine and hexacosanol were evaluated by using morphometric methods to measure the thickness of the abdominal aorta and the intensity of the staining induced by Sudan IV, with a 1- to 5-point scoring system, according to the degree of severity.

The structures appear in SMILES notation.

`C[N+](C)(C)C[C@H](O)CC(=O)[O-]` [L-carnitine]: in series [1], the total cholesterol turned out to be 265.5 ± 6.1 mg/dL and the “cholesterolaemia-lowering action (in words)” value is “fairly modest”. The “effect on platelet aggregation induced by collagen (in words)” value in series [2] was “not changed”. Further, in series [3], the Start of arrhythmias fell in the range of 4 to 7 min, the “Total ectopic contractions during 30 min after coronary ligation” value was 860 ± 202 and the “ability to reduce ectopic contractions (in words)” value is “only a very limited ability to reduce ectopic contractions”. In series [4], this compound showed an ATP content after hypoxia of 0.67 ± 0.02 µmol/g tissue and an ATP content before hypoxia of 1.77 ± 0.25 µmol/g tissue. Besides, the “signs of toxic reactions or of poor tolerability” value in series [5] is recorded as “failed to produce any signs of toxic reactions or of poor tolerability”. For the same compound, in series [6], the mortality entry was “without any mortality” and the signs of toxicity result is given as “without any evident signs of toxicity”. In addition, in series [7], the mortality result was “without any mortality” and the signs of toxicity entry was “without any evident signs of toxicity”. The “severity/occurrence of atherosclerotic lesions (in words)” value in series [8] is listed as “capable of reducing the severity of the atherosclerotic lesions”.

For the compound `CCCCCCCCCCCCCCCCCCCCCCCCCCO` [Hexacosanol], in series [1], the total cholesterol was 268.5 ± 5.6 mg/dL and the “cholesterolaemia-lowering action (in words)” value is recorded as “fairly modest”. The IC50 in series [2] (Homo sapiens, Platelet, 10 min, read-out: ED50, inhibition of platelet aggregation induced by collagen) amounted to 5.5 ng/mL. Moreover, in series [2], the “effect on platelet aggregation induced by collagen (in words)” value is “only partly inhibiting the platelet aggregation”. In series [3], the Start of arrhythmias fell in the range of 5 to 7 min, the “Total ectopic contractions during 30 min after coronary ligation” value is given as 810 ± 190 and the “ability to reduce ectopic contractions (in words)” value is given as “only a very limited ability to reduce ectopic contractions”. In series [4], this compound yielded an ATP content after hypoxia of 0.77 ± 0.05 µmol/g tissue and an ATP content before hypoxia of 1.7 ± 0.3 µmol/g tissue. For the same compound, in series [8], the “severity/occurrence of atherosclerotic lesions (in words)” value was “capable of reducing the severity of the atherosclerotic lesions”.

(Values after patent US6328998A, “Composition comprising L-carnitine or an alkanoyl L-carnitine and long-chain alkanols” (Sigma-Tau Industrie Farmaceutiche Riunite S.p.A., priority 1997, dated 2001).)
